Assay results reported in patent US20180280528A1, “ANTIFOLATE CONJUGATES FOR TREATING INFLAMMATION” (ENDOCYTE, INC., priority 2015, published 2018).
Like-named read-outs stand apart in the source and are kept apart here.

What was measured:
[1] = tested on: Rat adjuvant arthritis (AIA); assay: Rat adjuvant arthritis (AIA) treatment studies; type: in vivo
Method: Female Lewis rats (175-200 g) were purchased from Harlan Sprague Dawley (Indianapolis, Ind.) and allowed to acclimate for 1 week. Generally, rats were fed a folate-deficient diet (Harlan Teklad) for 9-10 days prior to arthritis induction.
Rat adjuvant arthritis (AIA) was induced by intradermal inoculation (at the base of tail) of 0.45-0.46 mg of heat-killed Mycobacteria butyricum (BD Diagnostic Systems, Sparks, Md.) in 100 μL light mineral oil (Sigma). […] During the course of disease development, animals were weighed at least 3 times a week. Paw edema (degree of arthritis) were scored 3 times a week as follows: 0=no edema or arthritis; 1=swelling in one type of joint; 2=swelling in two types of joint; 3=swelling in three types of joint; 4=swelling of the entire paw. A total score for each rat is calculated by adding up the scores for each of the four paws, giving a maximum of 16 per animal.
On the first day of treatment, rats with desired arthritis scores were distributed evenly across the control and treatment groups (n=5). […] All compounds and conjugates were administered subcutaneously (s.c.) starting 9 days after arthritis induction with biweekly (BIW, Mondays and Thursdays) or once-a-week (QW, Mondays) dosing for two consecutive weeks. At the completion of each study (˜4 days after the last treatment), rats were euthanized by CO2 asphyxiation and processed for paw weight (cut at the hairline) and spleen weight.
The rat AIA model resembles many characteristics of human rheumatoid arthritis and it is very aggressive. […] The animals in the AIA control group were left untreated.

[2] = Release of aminopterin in rat hepatic cytosol; type: in vitro ADME; settings: 5% rat liver cytosol, 1 hour; for pH dependence of aminopterin release from the conjugate: pH 4.5, 6.0, 7.4, 37° C.
Method: EC2319 and EC1669 were incubated in 5% rat, dog, and human hepatic cytosol at different pH's to look at release of aminopterin from these conjugates. Liver cytosols from male Sprague-Dawley rats (Lot No. 1110428), male beagle dogs (Lot no. 1310024), and male humans (Lot No. 0710493), all containing 10 mg/mL protein, were obtained from Xenotech LLC (Lenexa, Kans.). These were diluted 20× in either 0.5 M sodium acetate buffer, pH 4.5, 0.5 M sodium acetate buffer, 6.0, or 0.5 M potassium phosphate buffer, pH 7.4 in a final volume of 500 μL. Reactions were initiated by the addition of 1 μL of either EC2319 or EC1669 and the reaction mixtures incubated at 37° C. for 1 hour. At the end of the incubation, a 100 μL aliquot was withdrawn into a cluster tube and the reaction was terminated by the addition of 5 μL of stabilizer solution (containing 8.5 mg/ml N-Maleoyl-β-alanine, 20 mg/mL mannitol and 0.075% acetic acid) and 100 μL of acetonitrile containing d5-aminopterin. The tubes were vortexed and then centrifuged at 4000 rpm for 10 minutes (Eppendorf centrifuge 5810R). 150 μL of the supernatant was transferred to 96-well plates and the acetonitrile evaporated off under nitrogen at 35° C. for 5 minutes. The extract was diluted with 50 μL of mobile phase A. The plate was vortexed on a VX-2500 multi-tube vortexer (VWR International, Radnor, Pa.) and the extract analyzed by LC-MS/MS.

[3] = Plasma protein binding by ultrafiltration, dog plasma; type: in vitro ADME; settings: 500 nM
Method: EC2319 and EC1669 plasma protein binding was evaluated by ultra filtration using VWR 30K MWCO modified PES filters. 250 μL of 500 nM EC2319 or EC1669 in K3EDTA plasma incubated at 37° C. was added to the upper filter vessel. 50 μL was immediately removed as the donor plasma sample and aliquoted into a clean 1.2 mL plate. […] An aliquot of […] plasma ultrafiltrate was then added to the 1.2 mL plate as the receiver sample. To each plasma sample, 50 μL of plasma ultrafiltrate was added, and each ultrafiltrate sample received 50 μL of plasma to mitigate matrix effects. N-Maleoyl-β-alanine, mannitol, and acetic acid were added at the end of each experiment to stabilize the samples prior to LC-MS/MS analysis.

[4] = tested on: human THP-1-FRβ cells; assay: Cell viability (XTT) assay, THP-1-FRβ; type: cell-based
Method: All cells were grown in a folate-free RPMI1640 medium (Gibco BRL) (FFRPMI) containing 10% heat-inactivated fetal calf serum (HIFCS) and antibiotics, and maintained under a 5% CO2 atmosphere using standard cell culture techniques.
After a 2 h exposure, the drug-containing media were replaced and the cells were allowed to incubate further for 72 h. The cell viability was assessed by adding XTT (2,3-bis(2-methoxy-4-nitro-5-sulfo-phenyl)-2H-tetrazolium-5-carboxanilide) to the culture medium for 3 h following the manufacturer's instructions. All results were expressed as % absorbance (minus background) relative to the untreated control cells. See results in FIG. 2A and FIG. 2B.
Importantly, the observed anti-proliferative effect was 100% competable in the presence of excess FA, indicating a FR-specific mode of action.

[5] = 500 nM, 37° C., two hours
Method: Blood samples were maintained at 37° C. for 30 minutes prior to spiking the analyte into 2.5 mL blood at 500 nM. At time 0 and every 30 minutes for two hours, blood samples were removed and centrifuged at 2000×g for 10 minutes to generate plasma. 50 μL aliquots of generated plasma were then transferred to a clean 1.2 mL plate containing N-Maleoyl-β-alanine, mannitol, and acetic acid. Samples were stored at −80° C. until being thawed for LC-MS/MS analysis.

SMILES	body weight ([1]; Study 2, 500 nmol/kg, BIW)	residual disease ([1]; Study 2, 500 nmol/kg, BIW)	anti-arthritic activity ([1]; Study 3, 500 nmol/kg, BIW)	body weight ([1]; Study 3, 500 nmol/kg, BIW)	pH dependence of aminopterin release from the conjugate [2]	plasma protein binding [3]	concentrations with cytostatic effect [4] [nM]	anti-proliferative effect competable in the presence of excess FA ([4]; 100-fold excess FA) [%]	IC50 ([4]; 2 h exposure, 72 h chase, XTT, read-out: relative IC50, inhibition of cell proliferation) [nM]	alleviating AIA symptoms (arthritis score, paw weight, spleen weight) ([1]; Study 1, 1000 nmol/kg, QW, s.c., two consecutive weeks)	anti-arthritic activity with concurrent EC0923 (arthritis score, paw weight, spleen weight, body weight) ([1]; Study 2, 500 nmol/kg BIW plus 500-fold molar excess EC0923 (250 μmol/kg))	reducing arthritis scores and paw weights ([1]; Study 2, 500 nmol/kg, BIW, s.c., two consecutive weeks)	decreasing arthritis score, paw weight, and spleen weight ([1]; Study 3, 500 nmol/kg, BIW, two consecutive weeks)	magnitude of aminopterin release ([2]; 37° C.)	whole blood stability (percent remaining of intact conjugate, formation of EC1886) ([5]; fresh human blood)	whole blood stability (percent remaining of intact conjugate, formation of EC1886) ([5]; fresh rat blood)
N=c1[nH]c(N)nc2ncc(CNc3ccc(C(=O)N[C@@H](CCC(=O)NNC(=O)OCCSSC[C@@H](NC(=O)[C@H](CCC(=O)NC[C@H](O)[C@@H](O)[C@H](O)[C@H](O)CO)NC(=O)[C@@H](CCC(=O)O)NC(=O)[C@H](CCC(=O)NC[C@H](O)[C@@H](O)[C@H](O)[C@H](O)CO)NC(=O)[C@@H](CCC(=O)O)NC(=O)[C@H](CCC(=O)NC[C@H](O)[C@@H](O)[C@H](O)[C@H](O)CO)NC(=O)CC[C@H](NC(=O)c4ccc(NCc5cnc6nc(N)[nH]c(=O)c6n5)cc4)C(=O)O)C(=O)O)C(=O)O)cc3)nc12 [EC1669, reference compound]	maintained a healthier body weight than EC2285	minimal residual diseases	significant anti-arthritic activity	maintained a good body weight	broad pH specificity	high plasma protein binding										
COC(=O)[C@H](CSSC(C)(C)[C@H](NC(=O)[C@H](CCC(=O)NC[C@H](O)[C@@H](O)[C@H](O)[C@H](O)CO)NC(=O)[C@H](CCC(=O)O)NC(=O)[C@H](CCC(=O)NC[C@H](O)[C@@H](O)[C@H](O)[C@H](O)CO)NC(=O)[C@H](CCC(=O)O)NC(=O)[C@H](CCC(=O)NC[C@H](O)[C@@H](O)[C@H](O)[C@H](O)CO)NC(=O)CC[C@H](NC(=O)c1ccc(NCc2cnc3nc(N)[nH]c(=O)c3n2)cc1)C(=O)O)C(=O)O)NC(=O)CC[C@H](NC(=O)c1ccc(NCc2cnc3nc(N)nc(N)c3n2)cc1)C(=O)O [EC2319]	maintained a healthier body weight than EC2285	minimal residual diseases	significant anti-arthritic activity	maintained a good body weight	broad pH specificity	higher plasma protein binding than did EC1669	≥ 100	100	~8.7	as effective as EC1669, EC2285, and EC2318	fully blocked by EC0923	equally efficacious as EC1669 but significantly more active than EC2285	as efficacious as EC1669	lower than that from EC1669	superior stability profile than EC1669	superior stability profile than EC1669
